Experimental data: the NIST ThermoML archive (doi:10.1016/j.jct.2011.07.006)

Experiment: xn = mol fraction of the nth substance listed
Conditions: Gas, Buoyancy - hydrostatic balance with magnetic suspension - one sinker

N#N [nitrogen] + O=C=O
mass density [kg/m3]
Conditions | x2 = 0.1001 | x2 = 0.1505
250.04 K, 12011 kPa | 188.824 | –
250.04 K, 14015 kPa | 220.196 | –
250.04 K, 16024 kPa | 250.228 | –
250.04 K, 18041 kPa | 278.626 | –
250.04 K, 19866 kPa | 302.682 | –
250.05 K, 1985.1 kPa | 29 | –
250.05 K, 3997.3 kPa | 59.733 | –
250.05 K, 5998.8 kPa | 91.41 | –
250.05 K, 8000 kPa | 123.81 | –
250.05 K, 10007 kPa | 156.529 | –
250.06 K, 1944.1 kPa | – | 29.337
250.06 K, 3982.7 kPa | – | 61.879
250.06 K, 5984.1 kPa | – | 95.441
250.06 K, 7996.2 kPa | – | 130.387
250.06 K, 16016 kPa | – | 267.875
250.06 K, 18019 kPa | – | 298.361
250.06 K, 19997 kPa | – | 326.225
250.07 K, 10003 kPa | – | 165.836
250.07 K, 12006 kPa | – | 201.013
250.07 K, 14014 kPa | – | 235.308
275.01 K, 6002 kPa | 80.825 | –
275.01 K, 7997.9 kPa | 108.505 | –
275.02 K, 1988.5 kPa | – | 26.992
275.02 K, 3997.1 kPa | 53.276 | –
275.02 K, 4000.6 kPa | – | 55.255
275.02 K, 5998 kPa | – | 84.088
275.02 K, 7994.3 kPa | – | 113.405
275.02 K, 10004 kPa | 136.29 | –
275.02 K, 12009 kPa | 163.678 | –
275.02 K, 14013 kPa | 190.433 | –
275.02 K, 16022 kPa | 216.33 | –
275.02 K, 18057 kPa | 241.448 | –
275.02 K, 19841 kPa | 262.442 | –
275.03 K, 9995.5 kPa | – | 142.952
275.03 K, 12000 kPa | – | 172.315
275.03 K, 14001 kPa | – | 201.02
275.03 K, 15981 kPa | – | 228.492
275.03 K, 17994 kPa | – | 255.193
275.03 K, 19983 kPa | – | 280.214
299.96 K, 17994 kPa | – | 224.784
299.96 K, 19165 kPa | 226.098 | –
299.96 K, 19977 kPa | – | 247.119
299.97 K, 1992.1 kPa | – | 24.615
299.97 K, 1997.9 kPa | 23.945 | –
299.97 K, 3982.3 kPa | – | 49.692
299.97 K, 3996.5 kPa | 48.22 | –
299.97 K, 5996.4 kPa | 72.692 | –
299.97 K, 5999.2 kPa | – | 75.467
299.97 K, 7999.7 kPa | 97.214 | –
299.97 K, 8007.8 kPa | – | 101.3
299.97 K, 10002 kPa | 121.553 | –
299.97 K, 10003 kPa | – | 126.921
299.97 K, 12006 kPa | 145.55 | –
299.97 K, 12008 kPa | – | 152.379
299.97 K, 13991 kPa | – | 177.09
299.97 K, 14010 kPa | 169.025 | –
299.97 K, 15969 kPa | – | 201.068
299.97 K, 16014 kPa | 191.829 | –
299.97 K, 17869 kPa | 212.244 | –
324.98 K, 1996 kPa | 21.979 | –
324.98 K, 1996.1 kPa | – | 22.645
324.98 K, 3995.9 kPa | – | 45.557
324.98 K, 3996.2 kPa | 44.111 | –
324.98 K, 5991.8 kPa | 66.201 | –
324.98 K, 5996.6 kPa | – | 68.599
324.98 K, 7997.6 kPa | – | 91.632
324.98 K, 8019.2 kPa | 88.521 | –
324.98 K, 9996.9 kPa | – | 114.495
324.98 K, 9998.9 kPa | 110.087 | –
324.98 K, 11991 kPa | – | 137.002
324.98 K, 11999 kPa | 131.525 | –
324.98 K, 13983 kPa | 152.335 | –
324.98 K, 14014 kPa | – | 159.405
324.98 K, 16001 kPa | 172.971 | –
324.98 K, 16006 kPa | – | 180.933
324.98 K, 18001 kPa | 192.79 | –
324.98 K, 18016 kPa | – | 202.007
324.98 K, 19621 kPa | 208.36 | –
324.98 K, 19978 kPa | – | 221.898
349.96 K, 1996.1 kPa | 20.34 | –
349.96 K, 3996.6 kPa | 40.709 | –
349.96 K, 5996.7 kPa | 60.978 | –
349.97 K, 1995.9 kPa | – | 20.947
349.97 K, 3995.3 kPa | – | 41.993
349.97 K, 5996.9 kPa | – | 63.049
349.97 K, 7995.4 kPa | – | 83.959
349.97 K, 7995.8 kPa | 81.051 | –
349.97 K, 9997.5 kPa | 100.892 | –
349.97 K, 9999.5 kPa | – | 104.724
349.97 K, 11998 kPa | 120.373 | 125.127
349.97 K, 13995 kPa | 139.425 | –
349.97 K, 14004 kPa | – | 145.221
349.97 K, 16000 kPa | 158.084 | –
349.97 K, 16008 kPa | – | 164.842
349.97 K, 17994 kPa | 176.127 | –
349.97 K, 18008 kPa | – | 183.902
349.97 K, 19378 kPa | 188.339 | –
349.97 K, 19983 kPa | – | 202.168
374.95 K, 1963.6 kPa | – | 19.172
374.95 K, 3953.7 kPa | – | 38.571
374.95 K, 5995.6 kPa | – | 58.378
374.95 K, 7997.3 kPa | – | 77.627
374.95 K, 9986.3 kPa | – | 96.527
374.95 K, 11945 kPa | – | 114.852
374.96 K, 13990 kPa | – | 133.615
374.96 K, 15999 kPa | – | 151.646
374.96 K, 17992 kPa | – | 169.101
374.96 K, 19972 kPa | – | 185.971
374.97 K, 1974.6 kPa | 18.733 | –
374.97 K, 3962.2 kPa | 37.494 | –
374.97 K, 5994.5 kPa | 56.518 | –
374.97 K, 7989.9 kPa | 74.983 | –
374.97 K, 9982.5 kPa | 93.148 | –
374.97 K, 11981 kPa | 111.044 | –
374.97 K, 13972 kPa | 128.504 | –
374.97 K, 15966 kPa | 145.587 | –
374.98 K, 17960 kPa | 162.237 | –
374.98 K, 18719 kPa | 168.45 | –
400.02 K, 1995.3 kPa | – | 18.223
400.02 K, 3995.7 kPa | – | 36.397
400.02 K, 5995.4 kPa | – | 54.424
400.02 K, 7991.2 kPa | – | 72.219
400.02 K, 9990.8 kPa | – | 89.804
400.02 K, 11986 kPa | – | 107.065
400.02 K, 13988 kPa | – | 124.054
400.02 K, 15977 kPa | – | 140.583
400.02 K, 17818 kPa | – | 155.538
400.03 K, 3994.9 kPa | 35.321 | –
400.03 K, 9992.9 kPa | 86.844 | –
400.04 K, 1995.9 kPa | 17.722 | –
400.04 K, 5992.1 kPa | 52.72 | –
400.04 K, 7980.9 kPa | 69.818 | –
400.04 K, 11987 kPa | 103.403 | –
400.04 K, 13992 kPa | 119.725 | –
400.04 K, 15984 kPa | 135.572 | –
400.04 K, 17815 kPa | 149.796 | –
400.04 K, 18908 kPa | 158.136 | –
